Reference: patent US10792289B2 (Horizon Orphan LLC, priority 2009, dated 2020)
Where two headings read alike, the source gives them in different places.

Test system: P. aeruginosa isolates
Assay: Phase 2 study: MIC of P. aeruginosa isolates to levofloxacin
Assay type: cell-based
Conditions: Pseudomonas aeruginosa
Experimental: Efficacy was evaluated by microbiologic assessment of sputum samples, time to need for anti-pseudomonal antimicrobials, the Cystic Fibrosis Questionaire-Revised (CFQ-R), and pulmonary function tests. […] Pair-wise comparisons between all the treatment arms were conducted as secondary analyses.

Work on C[C@H]1COc2c(N3CCN(C)CC3)c(F)cc3c(=O)c(C(=O)O)cn1c23 [Levofloxacin, levofloxacin] yielded an MIC50 (336 h, MITT, combined 240 mg QD and BID, Day 14, read-out: MIC50 (all organisms)) of 4 µg/mL, an MIC90 (336 h, MITT, combined 240 mg QD and BID, Day 14, read-out: MIC90 (all organisms)) of 16 µg/mL and an MIC50 (336 h, Table 14, EE, 120 mg QD, Day 14, read-out: MIC50 (all organisms)) of 8 µg/mL. For the same compound, the MIC90 (336 h, Table 14, EE, 120 mg QD, Day 14, read-out: MIC90 (all organisms)) was 32 µg/mL, the MIC50 (336 h, Table 14, EE, 240 mg BID, Day 14, read-out: MIC50 (all organisms)) was 4 µg/mL and the MIC90 (336 h, Table 14, EE, 240 mg BID, Day 14, read-out: MIC90 (all organisms)) was 32 µg/mL. It also gave an MIC50 (336 h, Table 14, EE, 240 mg QD, Day 14, read-out: MIC50 (all organisms)) of 8 µg/mL, an MIC90 (336 h, Table 14, EE, 240 mg QD, Day 14, read-out: MIC90 (all organisms)) of 16 µg/mL and an MIC (336 h, read-out: Highest MIC to levofloxacin, mean (SD), MITT, 120 mg QD, Day 14) of 20.3 µg/mL. For the same compound, the MIC (336 h, read-out: Highest MIC to levofloxacin, mean (SD), MITT, 240 mg BID, Day 14) was 14.9 µg/mL, the MIC (336 h, read-out: Highest MIC to levofloxacin, mean (SD), MITT, 240 mg QD, Day 14) was 9.28 µg/mL and the MIC (336 h, read-out: Highest MIC to levofloxacin, mean (SD), MITT, combined 240 mg QD and BID, Day 14) was 12.1 µg/mL. The MIC (336 h, read-out: MIC to levofloxacin (all organisms), mean (SD), EE, 120 mg QD, Day 14) was 13 µg/mL, the MIC (336 h, read-out: MIC to levofloxacin (all organisms), mean (SD), EE, 240 mg BID, Day 14) was 8.4 µg/mL and the MIC (336 h, read-out: MIC to levofloxacin (all organisms), mean (SD), EE, 240 mg QD, Day 14) was 6.6 µg/mL. For the same compound, the MIC (336 h, read-out: MIC to levofloxacin (all organisms), mean (SD), EE, combined 240 mg QD and BID, Day 14) was 7.5 µg/mL, the MIC (336 h, read-out: MIC to levofloxacin (all organisms), mean (SD), MITT, 120 mg QD, Day 14) was 12.9 µg/mL and the MIC (336 h, read-out: MIC to levofloxacin (all organisms), mean (SD), MITT, 240 mg BID, Day 14) was 8.2 µg/mL. The MIC (336 h, read-out: MIC to levofloxacin (all organisms), mean (SD), MITT, 240 mg QD, Day 14) was 6.5 µg/mL, the MIC (336 h, read-out: MIC to levofloxacin (all organisms), mean (SD), MITT, combined 240 mg QD and BID, Day 14) was 7.3 µg/mL and the MIC (336 h, read-out: MIC to levofloxacin (all organisms), mean (SD), Table 14, EE, 120 mg QD, Day 14) was 21.2 µg/mL. The MIC (336 h, read-out: MIC to levofloxacin (all organisms), mean (SD), Table 14, EE, 240 mg BID, Day 14) was 15.2 µg/mL, the MIC (336 h, read-out: MIC to levofloxacin (all organisms), mean (SD), Table 14, EE, 240 mg QD, Day 14) was 9.56 µg/mL and the MIC (336 h, read-out: MIC to levofloxacin (all organisms), mean (SD), Table 14, EE, combined 240 mg QD and BID, Day 14) was 12.3 µg/mL. For the same compound, the MIC50 (672 h, EE and MITT, 120 mg QD, Day 28, read-out: MIC50 for P. aeruginosa isolates) was 8 µg/mL, the MIC90 (672 h, EE and MITT, 120 mg QD, Day 28, read-out: MIC90 for P. aeruginosa isolates) was 32 µg/mL and the MIC50 (672 h, EE and MITT, 240 mg BID, Day 28, read-out: MIC50 for P. aeruginosa isolates) was 8 µg/mL. For the same compound, the MIC90 (672 h, EE and MITT, 240 mg BID, Day 28, read-out: MIC90 for P. aeruginosa isolates) was 32 µg/mL, the MIC50 (672 h, EE and MITT, 240 mg QD, Day 28, read-out: MIC50 for P. aeruginosa isolates) was 8 µg/mL and the MIC90 (672 h, EE and MITT, 240 mg QD, Day 28, read-out: MIC90 for P. aeruginosa isolates) was 16 µg/mL. The MIC50 (672 h, EE, 120 mg QD, Day 28, read-out: MIC50 (all organisms)) was 4 µg/mL, the MIC90 (672 h, EE, 120 mg QD, Day 28, read-out: MIC90 (all organisms)) was 16 µg/mL and the MIC50 (672 h, EE, 240 mg BID, Day 28, read-out: MIC50 (all organisms)) was 4 µg/mL. The MIC90 (672 h, EE, 240 mg BID, Day 28, read-out: MIC90 (all organisms)) was 32 µg/mL, the MIC50 (672 h, EE, 240 mg QD, Day 28, read-out: MIC50 (all organisms)) was 4 µg/mL and the MIC90 (672 h, EE, 240 mg QD, Day 28, read-out: MIC90 (all organisms)) was 16 µg/mL. For the same compound, the MIC50 (672 h, EE, combined 240 mg QD and BID, Day 28, read-out: MIC50 (all organisms)) was 4 µg/mL, the MIC90 (672 h, EE, combined 240 mg QD and BID, Day 28, read-out: MIC90 (all organisms)) was 16 µg/mL and the MIC50 (672 h, MITT, 120 mg QD, Day 28, read-out: Highest MIC, MIC50) was 8 µg/mL. It also gave an MIC90 (672 h, MITT, 120 mg QD, Day 28, read-out: Highest MIC, MIC90) of 32 µg/mL, an MIC50 (672 h, MITT, 120 mg QD, Day 28, read-out: MIC50 (all organisms)) of 4 µg/mL and an MIC90 (672 h, MITT, 120 mg QD, Day 28, read-out: MIC90 (all organisms)) of 16 µg/mL. The MIC50 (672 h, MITT, 240 mg BID, Day 28, read-out: Highest MIC, MIC50) was 8 µg/mL, the MIC90 (672 h, MITT, 240 mg BID, Day 28, read-out: Highest MIC, MIC90) was 16 µg/mL and the MIC50 (672 h, MITT, 240 mg BID, Day 28, read-out: MIC50 (all organisms)) was 4 µg/mL. It also gave an MIC90 (672 h, MITT, 240 mg BID, Day 28, read-out: MIC90 (all organisms)) of 32 µg/mL, an MIC50 (672 h, MITT, 240 mg QD, Day 28, read-out: Highest MIC, MIC50) of 8 µg/mL and an MIC90 (672 h, MITT, 240 mg QD, Day 28, read-out: Highest MIC, MIC90) of 16 µg/mL. It also gave an MIC50 (672 h, MITT, 240 mg QD, Day 28, read-out: MIC50 (all organisms)) of 4 µg/mL, an MIC90 (672 h, MITT, 240 mg QD, Day 28, read-out: MIC90 (all organisms)) of 16 µg/mL and an MIC50 (672 h, MITT, combined 240 mg QD and BID, Day 28, read-out: Highest MIC, MIC50) of 8 µg/mL.
